Laboratory results taken from paper PMC11589570, “Critical assessment of LC3/GABARAP ligands used for degrader development and ligandability of LC3/GABARAP binding pockets” (Nature Communications, 2024).
Values joined by “and” are separate entries in the source; they are usually repeats but may differ in a detail not shown here. Equal entries are not always repeated.

Experiments:
Test in all cases: FP assay with Cy5-labelled p62 LIR tracer (protein titration and tracer displacement)
Type in all cases: binding
[1] = molecular target: LC3C (Homo sapiens, UniProt Q9BXW4); conditions: for normalized FP signal, p62 LIR tracer displacement: LC3C; for compound titration LC3C (displacement curve, FP signal): two replicate columns per compound
Sequence of LC3C (Q9BXW4 1-126): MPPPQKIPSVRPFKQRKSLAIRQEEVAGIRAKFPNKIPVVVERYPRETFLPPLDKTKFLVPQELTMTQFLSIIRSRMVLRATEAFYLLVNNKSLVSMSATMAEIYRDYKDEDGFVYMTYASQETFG

[2] = molecular target: GABARAP (Homo sapiens, UniProt O95166); conditions: for normalized FP signal, p62 LIR tracer displacement: GABARAP; for compound titration GABARAP (displacement curve, FP signal): two replicate columns per compound
Sequence of GABARAP (O95166 1-116): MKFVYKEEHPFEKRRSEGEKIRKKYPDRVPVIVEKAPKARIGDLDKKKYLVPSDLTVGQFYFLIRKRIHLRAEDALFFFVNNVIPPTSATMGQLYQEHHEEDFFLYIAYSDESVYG

[3] = molecular target: GABARAPL1 (Homo sapiens, UniProt Q9H0R8); conditions: GABARAPL1
Sequence of GABARAPL1 (Q9H0R8 whole entry): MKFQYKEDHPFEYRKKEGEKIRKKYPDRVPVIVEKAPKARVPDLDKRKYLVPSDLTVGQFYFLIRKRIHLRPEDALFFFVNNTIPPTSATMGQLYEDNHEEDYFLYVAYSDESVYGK

[4] = log10 concentration [M] -3.82391, listed as 8F20
[5] = log10 concentration [M] -4.1549, listed as 8F20
[6] = log10 concentration [M] -4.60206, listed as 8F20
[7] = log10 concentration [M] -5, listed as 8F20
[8] = log10 concentration [M] -5.30103, listed as 8F20
[9] = log10 concentration [M] -5.69897, listed as 8F20
[10] = log10 concentration [M] -6.22185, listed as 8F20
[11] = log10 concentration [M] -6.69897, listed as 8F20
[12] = log10 concentration [M] -7.30103, listed as 8F20
[13] = log10 concentration [M] -7.79588
[14] = log10 concentration [M] -7.79588, listed as 8F20
[15] = log10 concentration [M] -8.08092, listed as 8F20
[16] = log10 concentration [M] -3.82391
[17] = log10 concentration [M] -4.1549
[18] = log10 concentration [M] -4.60206
[19] = log10 concentration [M] -5.30103
[20] = log10 concentration [M] -5.69897
[21] = log10 concentration [M] -6.22185
[22] = log10 concentration [M] -6.69897
[23] = log10 concentration [M] -7.30103
[24] = log10 concentration [M] -8.08092

Cc1ccc(C(=O)N(CCCN)[C@@H](c2nc3cc(Cl)ccc3c(=O)n2Cc2ccccc2)C(C)C)cc1 [compound 3, (R)-N-(3-aminopropyl)-N-(1-(3-benzyl-7-chloro-4-oxo-3,4-dihydroquinazolin-2-yl)−2-methylpropyl)−4-methylbenzamide]
normalized FP signal, p62 LIR tracer displacement [1, 4]: 89.8 and 92.8 | normalized FP signal, p62 LIR tracer displacement [1, 5]: 92.6 and 95.4 | normalized FP signal, p62 LIR tracer displacement [1, 6]: 97.8 and 100.8 | normalized FP signal, p62 LIR tracer displacement [1, 7]: 94.6 and 96.4 | normalized FP signal, p62 LIR tracer displacement [1, 8]: 98.8 and 92.6 | normalized FP signal, p62 LIR tracer displacement [1, 9]: 85.8 and 92.2 | normalized FP signal, p62 LIR tracer displacement [1, 10]: 93.8 and 95 | normalized FP signal, p62 LIR tracer displacement [1, 11]: 99.2 and 96.4 | normalized FP signal, p62 LIR tracer displacement [1, 12]: 101 and 100.8 | normalized FP signal, p62 LIR tracer displacement [1, 13]: 94.6 | normalized FP signal, p62 LIR tracer displacement [1, 14]: 93.4 | normalized FP signal, p62 LIR tracer displacement [1, 15]: 95.2 and 100.4 | compound titration LC3C (displacement curve, FP signal) [1, 16]: 89.8 and 92.8 | compound titration LC3C (displacement curve, FP signal) [1, 17]: 92.6 and 95.4 | compound titration LC3C (displacement curve, FP signal) [1, 18]: 97.8 and 100.8 | compound titration LC3C (displacement curve, FP signal) ([1]; log10 concentration [M] -5): 94.6 and 96.4 | compound titration LC3C (displacement curve, FP signal) [1, 19]: 98.8 and 92.6 | compound titration LC3C (displacement curve, FP signal) [1, 20]: 85.8 and 92.2 | compound titration LC3C (displacement curve, FP signal) [1, 21]: 93.8 and 95 | compound titration LC3C (displacement curve, FP signal) [1, 22]: 99.2 and 96.4 | compound titration LC3C (displacement curve, FP signal) [1, 23]: 101 and 100.8 | compound titration LC3C (displacement curve, FP signal) [1, 13]: 93.4 and 94.6 | compound titration LC3C (displacement curve, FP signal) [1, 24]: 95.2 and 100.4 | normalized FP signal, p62 LIR tracer displacement [2, 4]: 89.6552 and 90.5172 | normalized FP signal, p62 LIR tracer displacement [2, 5]: 93.7931 and 93.9655 | normalized FP signal, p62 LIR tracer displacement [2, 6]: 101.379 and 97.931 | normalized FP signal, p62 LIR tracer displacement [2, 7]: 97.4138 and 100.172 | normalized FP signal, p62 LIR tracer displacement [2, 8]: 96.2069 and 97.931 | normalized FP signal, p62 LIR tracer displacement [2, 9]: 90 and 89.6552 | normalized FP signal, p62 LIR tracer displacement [2, 10]: 96.2069 and 96.5517 | normalized FP signal, p62 LIR tracer displacement [2, 11]: 96.5517 and 96.3793 | normalized FP signal, p62 LIR tracer displacement [2, 12]: 100 and 98.2759 | normalized FP signal, p62 LIR tracer displacement [2, 13]: 95.5172 | normalized FP signal, p62 LIR tracer displacement [2, 15]: 97.069 and 98.1034 | compound titration GABARAP (displacement curve, FP signal) [2, 16]: 89.6552 and 90.5172 | compound titration GABARAP (displacement curve, FP signal) [2, 17]: 93.7931 and 93.9655 | compound titration GABARAP (displacement curve, FP signal) [2, 18]: 101.379 and 97.931 | compound titration GABARAP (displacement curve, FP signal) ([2]; log10 concentration [M] -5): 97.4138 and 100.172 | compound titration GABARAP (displacement curve, FP signal) [2, 19]: 96.2069 and 97.931 | compound titration GABARAP (displacement curve, FP signal) [2, 20]: 90 and 89.6552 | compound titration GABARAP (displacement curve, FP signal) [2, 21]: 96.2069 and 96.5517 | compound titration GABARAP (displacement curve, FP signal) [2, 22]: 96.5517 and 96.3793 | compound titration GABARAP (displacement curve, FP signal) [2, 23]: 100 and 98.2759 | compound titration GABARAP (displacement curve, FP signal) [2, 13]: 95.5172 | compound titration GABARAP (displacement curve, FP signal) [2, 24]: 97.069 and 98.1034 | normalized FP signal, p62 LIR tracer displacement [3, 4]: 96.5714 and 97.4286 | normalized FP signal, p62 LIR tracer displacement [3, 5]: 97.2857 and 99 | normalized FP signal, p62 LIR tracer displacement [3, 18]: 101 | normalized FP signal, p62 LIR tracer displacement [3, 7]: 101.143 and 102 | normalized FP signal, p62 LIR tracer displacement [3, 19]: 100.143 | normalized FP signal, p62 LIR tracer displacement [3, 9]: 94.7143 and 94.5714 | normalized FP signal, p62 LIR tracer displacement [3, 10]: 98.2857 and 100.429 | normalized FP signal, p62 LIR tracer displacement [3, 11]: 99.7143 and 102.286 | normalized FP signal, p62 LIR tracer displacement [3, 12]: 103.571 and 102.286 | normalized FP signal, p62 LIR tracer displacement [3, 14]: 96.8571 and 101.571 | normalized FP signal, p62 LIR tracer displacement [3, 15]: 99.1429 and 98.1429
